Laboratory results as given in patent publication US20260193293A1, “PEPTIDES CAPABLE OF INHIBITING PROTEIN-PROTEIN INTERACTIONS AT GABAB1A SUBUNIT AND USES THEREOF” (UNIVERSITY OF COPENHAGEN, priority 2022, published 2026).
Like-named read-outs stand apart in the source and are kept apart here. Each block holds one compound with its values, some of them ahead of it. Non-standard residues stand in square brackets, D forms with d. Residues, ends and D or L forms follow the SMILES beside them. Phe(4-tBu) = CC(C)(C)c1ccc(C[C@H](N)C(=O)O)cc1; NMeW = CN[C@@H](Cc1c[nH]c2ccccc12)C(=O)O; NMeD = CN[C@@H](CC(=O)O)C(=O)O; Sar = CNCC(=O)O

Columns and labels:
[1] = molecular target: Sushi domains (SD1/2) protein; assay: Fluorescence polarization (FP) competition assay with AJAP-1probe, calculated Ki; format: binding
Method in brief: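 Competition against 25 nM TAMRA-labelled peptide probe binding SD1/2, in PBS pH 7.4 with 1% BSA at rt, read at 530/580 nm. IC50 from sigmoidal dose-response fits, at least triplicate; Ki calculated from IC50 using probe Kd from saturation binding.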

[2] = In vitro plasma stability; conditions: human; for half-life: plasma; for remaining at 48 h, 100 µM: human plasma
Procedure: For time-course assay, 360 μL human plasma was pre-warmed up at 37° C. for 15 min and then spiked with 40 μL of tested peptides (1 mM in 1×PBS). […] Subsequently, 100 μL acetonitrile was added into and then samples were incubated overnight at −20° C. After that, all samples were centrifuged at 13,400 rpm for 10 min and the supernatant was filtered and then analyzed by LC-MS and UPLC (Waters). The area under the curve (AUC) was determined and normalized to the value of the first time point. The half-life (T1/2) was obtained by fitting the data to the one-phase decay equation in GraphPad Prism 9 and expressed as the mean of three individual experiments. For end-point assay, 108 μL human plasma was pre-warmed up at 37° C. for 15 min and then spiked with 12 μL of tested peptides (1 mM in 1×PBS).

[3] = Table 14, CPPs tagged peptides, read-out: Ki (nM) mean ± SEM
[4] = CPP tagged peptides overview, SD1/2 binding affinity, mean ± SEM, n ≥ 3, read-out: Ki
[5] = Table 1, affinity maturation, mean ± SEM, n ≥ 3, read-out: Ki
[6] = Table 8, Ala-, D-amino acids and N-methylation scans of AJAP-1WT, read-out: Ki (nM) mean ± SEM
[7] = Table 13, peptides for affinity maturation, read-out: Ki (nM) mean ± SEM
[8] = Table 9, Ala-, D-amino acids and N-methylation scans of PIANPWT, read-out: Ki (nM) mean ± SEM
[9] = Table 7, Ala-, D-amino acids and N-methylation scans of APPWT, read-out: Ki (nM) mean ± SEM

Ki ([1]; purified peptides, read-out: Ki): 476 ± 19 nM
half-life [2]: 16 h
Compound: CC[C@H](C)[C@H](NC(=O)[C@H](C)NC(=O)[C@H](Cc1c[nH]c2ccccc12)NC(=O)[C@@H]1CCCN1C(C)=O)C(=O)N[C@H](C(=O)N[C@@H](Cc1c[nH]c2ccccc12)C(=O)NCC(=O)N1CCC[C@H]1C(=O)N[C@H](C(=O)N[C@H](C(=O)N[C@@H](CO)C(=O)N[C@@H](CCCNC(=N)N)C(=O)N[C@@H](CCC(=O)O)C(=O)N[C@@H](CC(=O)O)C(N)=O)C(C)C)[C@@H](C)O)C(C)C [PIANPWT, Ac-PWAIVWGPTVSRED-NH2] (Ac-PWAIVWGPTVSRED-NH2)

Ki [1, 3]: 9 ± 0.2 nM
remaining at 48 h, 100 µM [2]: ~80%
Compound: CC[C@H](C)[C@H](NC(=O)[C@H](Cc1c[nH]c2ccccc12)NC(=O)[C@H](CC(=O)O)NC(=O)[C@H](CC(=O)O)NC(=O)[C@H](CC(=O)O)NC(=O)[C@H](CCC(=O)O)NC(=O)[C@H](CCCNC(=N)N)NC(=O)[C@H](CCCNC(=N)N)NC(=O)[C@H](CCCNC(=N)N)NC(C)=O)C(=O)N[C@@H](CC(=O)O)C(=O)N[C@@H](Cc1c[nH]c2ccccc12)C(=O)NCC(=O)N1CCC[C@H]1C(=O)N[C@H](C(=O)N[C@@H](CO)C(=O)N[C@@H](CC(=O)O)C(=O)N[C@@H](CC(=O)O)C(=O)N[C@@H](CC(=O)O)C(N)=O)[C@@H](C)O [Peptide R3-17] (Ac-RRREDDDWIDWGPTSDDD-NH2)

Ki [1, 4]: 107 ± 1 nM
Ki [1, 3]: 107 ± 2 nM
remaining at 48 h, 100 µM [2]: ~50%
half-life [2]: > 48 h
Compound: CC[C@H](C)[C@H](NC(=O)[C@H](Cc1c[nH]c2ccccc12)NC(=O)[C@H](CC(=O)O)NC(=O)[C@H](CC(=O)O)NC(=O)[C@H](CC(=O)O)NC(=O)[C@H](CCC(=O)O)NC(=O)[C@H](CCCNC(=N)N)NC(=O)[C@H](CCCNC(=N)N)NC(=O)[C@H](CCCNC(=N)N)NC(=O)[C@H](CCCNC(=N)N)NC(=O)[C@H](CCCNC(=N)N)NC(=O)[C@H](CCCNC(=N)N)NC(=O)[C@H](CCCNC(=N)N)NC(=O)[C@H](CCCNC(=N)N)NC(C)=O)C(=O)N[C@@H](CC(=O)O)C(=O)N[C@@H](Cc1c[nH]c2ccccc12)C(=O)N[C@@H](Cc1ccc(O)cc1)C(=O)N[C@@H](CC(=O)O)C(=O)N[C@@H](CO)C(=O)N[C@@H](CC(=O)O)C(=O)N[C@@H](CC(=O)O)C(=O)N[C@@H](CC(=O)O)C(N)=O [Peptide R8-16] (Ac-RRRRRRRREDDDWIDWYDSDDD-NH2)

Ki [1, 5]: 32 ± 2 nM
Ki [1, 6]: 32 ± 2 nM
Ki [1, 7]: 32 ± 2 nM
Compound: CC[C@H](C)[C@H](NC(=O)[C@H](Cc1ccccc1)NC(=O)[C@H](CCC(=O)O)NC(=O)[C@@H](NC(=O)[C@H](CCC(=O)O)NC(C)=O)[C@@H](C)O)C(=O)N[C@@H](C)C(=O)N[C@@H](Cc1c[nH]c2ccccc12)C(=O)NCC(=O)N(C)CC(=O)N[C@H](C(=O)NCC(=O)N[C@@H](CC(=O)O)C(=O)N[C@@H](CCC(=O)O)C(=O)N[C@@H](CC(=O)O)C(N)=O)[C@@H](C)O [Peptide 38] (Ac-ETEFIAWG[Sar]TGDED-NH2)

Ki ([1]; Table 5, elongation and truncation scan of AJAP-1 binding epitope, read-out: Ki (nM) mean ± SEM): 69 ± 1 nM
Compound: CC[C@H](C)[C@H](NC(=O)[C@H](Cc1ccccc1)NC(=O)[C@H](CCC(=O)O)NC(=O)[C@@H](NC(=O)[C@H](CCC(=O)O)NC(=O)[C@@H](NC(C)=O)[C@@H](C)O)[C@@H](C)O)C(=O)N[C@@H](C)C(=O)N[C@@H](Cc1c[nH]c2ccccc12)C(=O)NCC(=O)N1CCC[C@H]1C(=O)N[C@H](C(=O)NCC(=O)N[C@@H](CC(=O)O)C(=O)N[C@@H](CCC(=O)O)C(N)=O)[C@@H](C)O (Ac-TETEFIAWGPTGDE-NH2)

Ki [1, 8]: 833 ± 12 nM
Compound: CC[C@H](C)[C@H](NC(=O)[C@H](C)NC(=O)[C@H](Cc1c[nH]c2ccccc12)N(C)C(=O)[C@@H]1CCCN1C(C)=O)C(=O)N[C@H](C(=O)N[C@@H](Cc1c[nH]c2ccccc12)C(=O)NCC(=O)N1CCC[C@H]1C(=O)N[C@H](C(=O)N[C@H](C(=O)N[C@@H](CO)C(=O)N[C@@H](CCCNC(=N)N)C(=O)N[C@@H](CCC(=O)O)C(=O)N[C@@H](CC(=O)O)C(N)=O)C(C)C)[C@@H](C)O)C(C)C [P(N-Me-W)AIVWGPTVSRED] (Ac-P[NMeW]AIVWGPTVSRED-NH2)

Ki [1, 7]: 164 ± 2 nM
Compound: CC(=O)N[C@@H](CCC(=O)O)C(=O)N[C@@H](CC(=O)O)C(=O)N[C@@H](CC(=O)O)C(=O)N[C@@H](CO)C(=O)N[C@@H](CC(=O)O)C(=O)N[C@H](C(=O)N[C@@H](Cc1c[nH]c2ccccc12)C(=O)N[C@@H](Cc1c[nH]c2ccccc12)C(=O)N[C@@H](Cc1ccc(O)cc1)C(=O)NCC(=O)N(C)CC(=O)N[C@@H](C)C(=O)N[C@@H](CC(=O)O)C(=O)N[C@H](C(=O)N[C@@H](CC(=O)O)C(N)=O)[C@@H](C)O)C(C)C (Ac-EDDSDVWWYG[Sar]ADTD-NH2)

Ki [1, 5]: 16 ± 1 nM
Ki [1, 7]: 16 ± 1 nM
fold better affinity than 9 ([1]; comparator printed as 9): 3.8 fold
Compound: CC[C@H](C)[C@H](NC(=O)[C@H](Cc1c[nH]c2ccccc12)NC(=O)[C@H](CO)NC(=O)[C@H](CC(=O)O)NC(=O)[C@H](CC(=O)O)NC(=O)[C@H](CCC(=O)O)NC(C)=O)C(=O)N[C@@H](Cc1c[nH]c2ccccc12)C(=O)N[C@@H](Cc1c[nH]c2ccccc12)C(=O)NCC(=O)N1CCC[C@H]1C(=O)N[C@H](C(=O)NCC(=O)N[C@@H](CC(=O)O)C(=O)N[C@@H](CCC(=O)O)C(=O)N[C@@H](CC(=O)O)C(N)=O)[C@@H](C)O [Peptide 27, Ac-EDDSWIWWGPTGDED-NH2] (Ac-EDDSWIWWGPTGDED-NH2)

Ki ([1]; Table 16, ncAAs incorporated peptides, read-out: Ki (nM) mean ± SEM): 269 ± 3 nM
Compound: EDDS(Buphe)VWWGGADTD (Ac-EDDS[Phe(4-tBu)]VWWGGADTD-NH2)

Ki [1, 4]: 79 ± 1 nM
Ki [1, 3]: 78.5 ± 1 nM
Compound: CC[C@H](C)[C@H](NC(=O)[C@H](Cc1c[nH]c2ccccc12)NC(=O)[C@H](CC(=O)O)NC(=O)[C@H](CC(=O)O)NC(=O)[C@H](CC(=O)O)NC(=O)[C@H](CCC(=O)O)NC(C)=O)C(=O)N[C@@H](CC(=O)O)C(=O)N[C@@H](Cc1c[nH]c2ccccc12)C(=O)NCC(=O)N1CCC[C@H]1C(=O)N[C@H](C(=O)N[C@@H](CO)C(=O)N[C@@H](CC(=O)O)C(=O)N[C@@H](CC(=O)O)C(=O)N[C@@H](CC(=O)O)C(=O)N[C@@H](Cc1ccc(O)cc1)C(=O)NCC(=O)N[C@@H](CCCNC(=N)N)C(=O)N[C@@H](CCCCN)C(=O)N[C@@H](CCCCN)C(=O)N[C@@H](CCCNC(=N)N)C(=O)N[C@@H](CCCNC(=N)N)C(=O)N[C@@H](CCC(N)=O)C(=O)N[C@@H](CCCNC(=N)N)C(=O)N[C@@H](CCCNC(=N)N)C(=O)N[C@@H](CCCNC(=N)N)C(N)=O)[C@@H](C)O [Peptide 17-Tat] (Ac-EDDDWIDWGPTSDDDYGRKKRRQRRR-NH2)

Ki [1, 9]: 3760 ± 64 nM
Compound: CC(=O)N[C@@H](CCC(=O)O)C(=O)N[C@@H](CC(=O)O)C(=O)N[C@@H](CC(=O)O)C(=O)N[C@@H](CO)C(=O)N(C)[C@@H](CC(=O)O)C(=O)N[C@H](C(=O)N[C@@H](Cc1c[nH]c2ccccc12)C(=O)N[C@@H](Cc1c[nH]c2ccccc12)C(=O)NCC(=O)NCC(=O)N[C@@H](C)C(=O)N[C@@H](CC(=O)O)C(=O)N[C@H](C(=O)N[C@@H](CC(=O)O)C(N)=O)[C@@H](C)O)C(C)C (Ac-EDDS[NMeD]VWWGGADTD-NH2)

Ki [1, 9]: 1240 ± 65 nM
Compound: CC(=O)N[C@@H](CCC(=O)O)C(=O)N[C@@H](C)C(=O)N[C@@H](CC(=O)O)C(=O)N[C@@H](CO)C(=O)N[C@@H](CC(=O)O)C(=O)N[C@H](C(=O)N[C@@H](Cc1c[nH]c2ccccc12)C(=O)N[C@@H](Cc1c[nH]c2ccccc12)C(=O)NCC(=O)NCC(=O)N[C@@H](C)C(=O)N[C@@H](CC(=O)O)C(=O)N[C@H](C(=O)N[C@@H](CC(=O)O)C(N)=O)[C@@H](C)O)C(C)C (Ac-EADSDVWWGGADTD-NH2)

Ki [1, 8]: 636 ± 6 nM
Compound: CC[C@H](C)[C@H](NC(=O)[C@H](C)NC(=O)[C@H](Cc1c[nH]c2ccccc12)NC(=O)[C@@H]1CCCN1C(C)=O)C(=O)N[C@H](C(=O)N(C)[C@@H](Cc1c[nH]c2ccccc12)C(=O)NCC(=O)N1CCC[C@H]1C(=O)N[C@H](C(=O)N[C@H](C(=O)N[C@@H](CO)C(=O)N[C@@H](CCCNC(=N)N)C(=O)N[C@@H](CCC(=O)O)C(=O)N[C@@H](CC(=O)O)C(N)=O)C(C)C)[C@@H](C)O)C(C)C [PWAIV(N-Me-W)GPTVSRED] (Ac-PWAIV[NMeW]GPTVSRED-NH2)

Ki ([1]; Table 12, deep mutational scanning validation variants of PIANPWT, read-out: Ki (nM) mean ± SEM): 383 ± 3 nM
Compound: CC[C@H](C)[C@H](NC(=O)[C@H](C)NC(=O)[C@H](Cc1c[nH]c2ccccc12)NC(=O)[C@@H]1CCCN1C(C)=O)C(=O)N[C@H](C(=O)N[C@@H](Cc1c[nH]c2ccccc12)C(=O)NCC(=O)N1CCC[C@H]1C(=O)N[C@H](C(=O)N[C@@H](CO)C(=O)N[C@@H](CO)C(=O)N[C@@H](CCCNC(=N)N)C(=O)N[C@@H](CCC(=O)O)C(=O)N[C@@H](CC(=O)O)C(N)=O)[C@@H](C)O)C(C)C [PWAIVWGPTSSRED] (Ac-PWAIVWGPTSSRED-NH2)

Ki ([1]; Table 11, cells printed in μM, read-out: Ki (nM) mean ± SEM): > 6250 nM
Compound: CC[C@H](C)[C@H](NC(=O)[C@H](Cc1ccccc1)NC(=O)[C@H](CCC(=O)O)NC(=O)[C@@H](NC(=O)[C@H](CCC(=O)O)NC(C)=O)[C@@H](C)O)C(=O)N1CCC[C@H]1C(=O)N[C@@H](Cc1c[nH]c2ccccc12)C(=O)NCC(=O)N1CCC[C@H]1C(=O)N[C@H](C(=O)NCC(=O)N[C@@H](CC(=O)O)C(=O)N[C@@H](CCC(=O)O)C(=O)N[C@@H](CC(=O)O)C(N)=O)[C@@H](C)O [ETEFIPWGPTGDED] (Ac-ETEFIPWGPTGDED-NH2)

Ki [1, 6]: 45 ± 2 nM
Compound: CC[C@H](C)[C@H](NC(=O)[C@H](Cc1ccccc1)NC(=O)[C@H](CCC(=O)O)NC(=O)[C@@H](NC(=O)[C@H](CCC(=O)O)NC(C)=O)[C@@H](C)O)C(=O)N[C@@H](C)C(=O)N[C@@H](Cc1c[nH]c2ccccc12)C(=O)NCC(=O)N1CCC[C@H]1C(=O)N[C@H](C(=O)NCC(=O)N(C)[C@@H](CC(=O)O)C(=O)N[C@@H](CCC(=O)O)C(=O)N[C@@H](CC(=O)O)C(N)=O)[C@@H](C)O (Ac-ETEFIAWGPTG[NMeD]ED-NH2)
